These results are taken from patent publication US8552161B2, “Saponin compounds, methods of preparation thereof, use thereof and pharmaceutical compositions” (Uniwersytet W Bialymstoku, priority 2009, dated 2013).

Data set [1] deals with human glioblastoma cell line T98. The data set is described as follows: Calcein AM cytotoxicity assay, T98. It counts as cell-based. The note with it: 72 h, means ± SD, three independent experiments in triplicate. As for the experimental part:
(§1) Stock solutions (10 mmol/l) of the tested compounds were prepared by dissolving relevant quantity of the substance in DMSO. Dulbecco's modified Eagle's medium (DMEM, RPMI 1640, F-12 medium), fetal bovine serum (FBS), L-glutamine, penicillin, streptomycin were purchased from Sigma (MO, USA). Calcein AM was obtained from Molecular Probes (Invitrogen Corporation, CA, USA).
(§2) The screening cell lines (T-lymphoblastic leukaemia cell line CEM, breast carcinoma cell line MCF-7, cervical carcinoma cell line HeLa, human glioblastoma cell line T98, human malignant melanoma G-361, human osteogenic sarcoma cell line HOS, carcinomic human alveolar basal epithelial cells A549, human colon carcinoma cells HCT 116 and human fibroblasts BJ) were obtained from the American Type Culture Collection (Manassas, Va., USA). All cell lines were cultured in DMEM medium (Sigma, Mo., USA). Medium was supplemented with 10% heat-inactivated fetal bovine serum, 2 mmol/l L-glutamine and 1% penicillin-streptomycin. The cell lines were maintained under standard cell culture conditions at 37° C. and 5% CO2 in a humid environment. Cells were subcultured twice or three times a week using the standard trypsinization procedure.
Cytotoxic activities of the novel compounds, obtained according to this invention, were tested in vitro against following cancer cell lines: T-lymphoblastic leukemia cell line CEM; breast carcinoma cell line MCF7, lung carcinoma cell line A549, cervical carcinoma cell line HeLa, malignant melanoma cell line G-361, osteosarcoma cell line HOS, human glioblastoma cell line T98, human colon carcinoma cells HCT 116 and normal human fibroblasts BJ. All cell lines were cultured in DMEM medium (Sigma, Mo., USA) supplemented with 10% fetal calf serum, 2 mM glutamine, 100 U/ml penicillin and 100 μg/ml streptomycin, at 37° C. in a fully humidified atmosphere containing 5% CO2. Suspensions of these lines (ca. 1.0×10^5 cells/ml) were placed in 96-well microtitre plates and after 3 h of stabilization the tested compounds were added in serially diluted concentrations. Saponins were dissolved in dimethylsulfoxide (DMSO) before addition to cultures. Control cultures were treated with DMSO alone. The final concentration of DMSO in the reaction mixtures never exceeded 0.6%. Four-fold dilutions of the intended test concentration were added at time zero in 20 μl aliquots to the microtitre plate wells. Usually, each test compound was evaluated at six 4-fold dilutions and in routine testing; the highest well concentration was 50 μM, although this varied in a few cases, depending on the test compound. After 72 h of culture, the cells were incubated with Calcein AM solution (Molecular Probes) for 1 h. The fluorescence of viable cells was quantified using a Fluoroscan Ascent instrument (Microsystems). The percentage of surviving cells in each well was calculated from the equation […]=(ODdrug exposed well/mean ODcontrol wells)×100%. The IC50 value, the drug concentration lethal to 50% of the tumour cells, was calculated from the obtained dose-response curves.

Data set [2] relates to lung carcinoma cell line A549. Put plainly: Calcein AM cytotoxicity assay, A549. Conditions: 72 h, means ± SD, three independent experiments in triplicate, read-out: IC50, A 549. It counts as cell-based, human. As for the experimental part: (§3) Stock solutions (10 mmol/l) of the tested compounds were prepared by dissolving relevant quantity of the substance in DMSO. […] Calcein AM was obtained from Molecular Probes (Invitrogen Corporation, CA, USA).
(§4) All cell lines were cultured in DMEM medium (Sigma, Mo., USA). Medium was supplemented with 10% heat-inactivated fetal bovine serum, 2 mmol/l L-glutamine and 1% penicillin-streptomycin. The cell lines were maintained under standard cell culture conditions at 37° C. and 5% CO2 in a humid environment. Cells were subcultured twice or three times a week using the standard trypsinization procedure.
(§5) All cell lines were cultured in DMEM medium (Sigma, Mo., USA) supplemented with 10% fetal calf serum, 2 mM glutamine, 100 U/ml penicillin and 100 μg/ml streptomycin, at 37° C. in a fully humidified atmosphere containing 5% CO2. Suspensions of these lines (ca. 1.0×10^5 cells/ml) were placed in 96-well microtitre plates and after 3 h of stabilization the tested compounds were added in serially diluted concentrations. Saponins were dissolved in dimethylsulfoxide (DMSO) before addition to cultures. Control cultures were treated with DMSO alone. The final concentration of DMSO in the reaction mixtures never exceeded 0.6%. Four-fold dilutions of the intended test concentration were added at time zero in 20 μl aliquots to the microtitre plate wells. Usually, each test compound was evaluated at six 4-fold dilutions and in routine testing; the highest well concentration was 50 μM, although this varied in a few cases, depending on the test compound. After 72 h of culture, the cells were incubated with Calcein AM solution (Molecular Probes) for 1 h. The fluorescence of viable cells was quantified using a Fluoroscan Ascent instrument (Microsystems).

In data set [3] the test system is human colon carcinoma cells HCT 116. The data set is described as follows: Calcein AM cytotoxicity assay, HCT 116. Type of data set: cell-based. Conditions: 72 h, means ± SD, three independent experiments in triplicate, read-out: IC50, HCT116. The method, then:
as §1, §2
(§6) Cytotoxic activities of the novel compounds, obtained according to this invention, were tested in vitro against following cancer cell lines: T-lymphoblastic leukemia cell line CEM; breast carcinoma cell line MCF7, lung carcinoma cell line A549, cervical carcinoma cell line HeLa, malignant melanoma cell line G-361, osteosarcoma cell line HOS, human glioblastoma cell line T98, human colon carcinoma cells HCT 116 and normal human fibroblasts BJ. […] Usually, each test compound was evaluated at six 4-fold dilutions and in routine testing; the highest well concentration was 50 μM, although this varied in a few cases, depending on the test compound. […] The fluorescence of viable cells was quantified using a Fluoroscan Ascent instrument (Microsystems). […]

Data set [4] has as its system T-lymphoblastic leukemia cell line CEM. The data set is described as follows: Calcein AM cytotoxicity assay, CEM. Conditions: 72 h; for IC50: Calcein AM assay, means ± SD, three independent experiments in triplicate. It counts as cell-based. As for the experimental part: as §3, §4, §5
The test system of data set [5] is osteosarcoma cell line HOS. The data set is described as follows: Calcein AM cytotoxicity assay, HOS. Conditions: 72 h, means ± SD, three independent experiments in triplicate. It counts as cell-based, human. As for the experimental part: as §1, §2, §6
For data set [6], the system named is malignant melanoma cell line G-361. The data set is described as follows: Calcein AM cytotoxicity assay, G-361. It counts as cell-based, human. Conditions: 72 h, means ± SD, three independent experiments in triplicate. As for the experimental part:
as §3, §4, §5

Data set [7] deals with normal human fibroblasts BJ. The data set is described as follows: Calcein AM cytotoxicity assay, normal fibroblasts BJ. Type of data set: cell-based. Conditions: 72 h, means ± SD, three independent experiments in triplicate. As for the experimental part:
as §3, §4, §5

The subject of data set [8] is breast carcinoma cell line MCF7. The data set is described as follows: Calcein AM cytotoxicity assay, MCF7. Type of data set: cell-based, human. The note with it: for IC50: Calcein AM assay, 72 h, means ± SD, three independent experiments in triplicate. The method, then: as §3, §4, §5
Data set [9] concerns cervical carcinoma cell line HeLa. Put plainly: Calcein AM cytotoxicity assay, HeLa. Type of data set: cell-based. Conditions: 72 h, means ± SD, three independent experiments in triplicate. As for the experimental part:
as §3, §4, §5

Data set [10] has as its system leukemia HL-60 cancer cells. The note with it: cited from earlier work.
Data set [11] has as its system human leukemia and pancreatic cancer cells. The note with it: cited from earlier work.
A further data set deals with P388. Conditions: mice bearing P388, single administration of 0.01 mg/kg; cited from earlier work.

The IC50 is the concentration at which inhibition is half-maximal. For `CCCCCCCCCCCCCC(=O)OC[C@@H](C)[C@@]1(O)[C@@H](O[C@@H]2OC[C@H](O)[C@H](O[C@@H]3OC[C@@H](O)[C@H](O)[C@H]3OC(=O)c3ccc(OC)cc3)[C@H]2OC(C)=O)C[C@H]2[C@@H]3CC=C4C[C@@H](O)CC[C@]4(C)[C@H]3CC[C@@]21C` [Compound 9, (20R)-21-O-tetradecanoyl-20-methylpregn-5-ene-3β,16β,17α,21-tetraol 16-O-{2-O-(4-methoxybenzoyl)β-D-xylopyranosyl-(1-43)-2′-O-acetyl-α-L-arabinopyranoside}], the IC50 in [1] was 28 ± 1 nM; in [2], 720 ± 70 nM; in data set [3], 2800 ± 400 nM; in [4] it was 16 ± 5 nM; in data set [5], 2700 ± 600 nM; in [6], 30 ± 10 nM. The IC50 is 83 ± 5 nM in data set [7], 48 ± 22 nM in data set [8] and 67 ± 2 nM in data set [9]. Also, the “dose-dependent antiproliferative activity, number of viable cells (FIG. 1)” value in data set [4] (CEM, increasing concentrations, Calcein AM) was “significantly reduce the number of living cells”; in data set [8] (MCF7, 72 h, increasing concentrations, Calcein AM), “significantly reduce the number of living cells”.
Turning to `CC(C)CCC(=O)[C@@H](C)[C@@]1(O)[C@@H](O)C[C@H]2[C@@H]3CC=C4C[C@@H](O)CC[C@]4(C)[C@H]3CC[C@@]21C` [OSW-1 aglycone, reference compound], the IC50 in data set [1], in data set [2], in data set [3], in data set [4], in [5] and in [6] was > 50000 nM throughout. The IC50 in data set [7], in [8] and in [9] was > 50000 nM throughout.
Turning to `COc1ccc(C(=O)O[C@H]2[C@H](O[C@@H]3[C@@H](OC(C)=O)[C@H](O[C@H]4C[C@H]5[C@@H]6CC=C7C[C@@H](O)CC[C@]7(C)[C@H]6CC[C@]5(C)[C@@]4(O)[C@H](C)C(=O)CCC(C)C)OC[C@@H]3O)OC[C@@H](O)[C@@H]2O)cc1` [OSW-1, reference compound], the “cytotoxicity relative to clinically applied anticancer agents (mitomycin C, adriamycin, cisplatin, camptothecin, taxol)” value in data set [10] (HL-60) is 10-100 times. The “cytotoxic activity, HL-60” value in data set [10] (NCI tests) was “nanomolar concentrations”. In addition, the IC50 was 70 ± 6 nM in data set [1]; 27 ± 3 nM in [2]; 8400 ± 500 nM in data set [3]; 3 ± 0.03 nM in data set [4]; 8200 ± 400 nM in data set [5]; 1000 ± 100 nM in data set [6]. In addition, the half-inhibitory concentration (IC50) in data set [7] was 0.2 nM; in [8], 54.4 ± 0.2 nM; in data set [9], 3.4 ± 0.3 nM. Moreover, the effect on mitochondria entry in [11] is “damaged the mitochondrial membrane and cristae”. Further, the “prolongation of life span” value in the data set with P388 is listed as 59%.
